Results taken from patent publication US8017772B2, “Substituted tetrahydropyrrolopyrazine compounds and the use thereof in the treatment and/or inhibition of pain” (Gruenenthal GmbH, priority 2006, dated 2011).
pEC50: −log10 of the molar value.

These molecules were tested against T1, hKCNQ2/3 (Homo sapiens, UniProt O43525+O43526) (assay: Fluorescence assay using a voltage sensitive dye (BMG)). Conditions: CHO-K1 cells expressing KCNQ2/3.
Format: cell-based
Procedure: 11. Biological Data 12. Fluorescence Assay Using a Voltage Sensitive Dye
Human CHO-K1 cells expressing KCNQ2/3 channels are cultivated adherently at 37° C., 5% CO2 and 95% humidity in cell culture bottles (e.g. 80 cm^2 TC flasks, Nunc) with MEM Alpha Medium (1×, liquid, Invitrogen, #22571), 10% fetal calf serum (FCS) (Invitrogen, #10270-106, heat-inactivated) and the necessary selection antibiotics.
Before being sown out for the measurements, the cells are washed with a 1×DPBS buffer without Ca^2+/Mg^2+ (e.g. Invitrogen, #14190-094) and detached from the bottom of the culture vessel by means of Accutase (PAA Laboratories, #L11-007) (incubation with Accutase for 15 min at 37° C.). The cell count then present is determined using a CASY™ cell counter (TCC model, Schärfe System) in order subsequently to apply 20,000 cells/well/100 μl of the described nutrient medium to 96-well measuring plates of the Corning™ CellBIND™ type (Flat Clear Bottom Black Polystyrene Microplates, #3340). Incubation is then carried out for one hour at room temperature, without gassing or adjusting the humidity, followed by incubation for 24 hours at 37° C., 5% CO2 and 95% humidity.
The voltage-sensitive fluorescent dye from the Membrane Potential Assay Kit (Red™ Bulk format part R8123 for FLIPR, Molecular Devices™) is prepared by dissolving the contents of a vessel Membrane Potential Assay Kit Red Component A in 200 ml of extracellular buffer (ES buffer, 120 mM NaCl, 1 mM KCl, 10 mM HEPES, 2 mM CaCl2, 2 mM MgCl2, 10 mM glucose; pH 7.4). After removal of the nutrient medium, the cells are washed with 200 μl of ES buffer, then covered with a layer of 100 μl of the dye solution prepared above and incubated for 45 min at room temperature with the exclusion of light.
The fluorescence measurements are carried out with a BMG Labtech FLUOstar™ or BMG Labtech POLARstar™ instrument (525 nm excitation, 560 nm emission, Bottom Read mode). After incubation of the dye, […] of the test substances in the desired concentrations, or 50 μl of ES buffer for control purposes, are introduced into separate cavities of the measuring plate and incubated for 30 min at room temperature while being shielded from light. The fluorescence intensity of the dye is then measured for 5 min and the fluorescence value F1 of each well is thus determined at a given, constant time. 15 μl of a […] KCl solution ([…]) are then added to each well. The change in fluorescence is subsequently measured until all the relevant measured values have been obtained (mainly 5-30 min). At a given time after KCl application, a fluorescence value F2 is determined, in this case at the time of the fluorescence peak.
For calculation, the fluorescence intensity F2 is compared with the fluorescence intensity F1, and the agonistic activity of the target compound on the potassium channel is determined therefrom. F2 and F1 are calculated as follows:
[formula] In order to determine whether a substance has an agonistic effect,
[formula] for example, can be compared with
[formula] determined by adding to the reaction batch only the buffer solution instead of the substance to be tested, determining the value F1K of the fluorescence intensity, adding the potassium ions as described above and measuring a value F2K of the fluorescence intensity. Then F2K and F1K are calculated as follows: […]
A substance has an agonistic activity on the potassium channel when
[formula] is greater than
[formula] Independently of the comparison of
[formula] it is also possible to conclude that a target compound has agonistic activity if an increase in
[formula] is to be observed as the dosage of the target compound increases. Calculations of EC50 and IC50 values are carried out with the aid of “Prism 4” software (GraphPad Software™). The following compounds were tested by way of example: […]

In order of rising pEC50:
1. O=C(CCC(=O)N1CCn2cccc2C1c1ccccc1)NCc1cccs1 (centres unmarked) [Example 83, 4-oxo-4-(1-phenyl-3,4-dihydropyrrolo[1,2-a]pyrazin-2(1H)-yl)-N-(thiophen-2-ylmethyl)butanamide]  4.84
2. CC1c2cccn2CCN1C(=O)CCC(=O)NCc1cccc(C(F)(F)F)c1 (centres unmarked) [Example 86, 4-(1-methyl-3,4-dihydropyrrolo[1,2-a]pyrazin-2(1H)-yl-4-oxo-N-(3-trifluoromethyl)benzyl)butanamide]  4.94
3. CC(NC(=O)CCC(=O)N1CCn2cccc2C1c1cccs1)c1cccc(C(F)(F)F)c1 (centres unmarked) [Example 82, 4-oxo-4-(1-(thiophen-2-yl)-3,4-dihydropyrrolo[1,2-a]pyrazin-2(1H)-yl)-N-(1-(3-(trifluoromethyl)phenyl)ethyl)butanamide]  5.28
4. O=C(CC(=O)N1CCn2cccc2C1c1ccccc1)NCc1cccc(C(F)(F)F)c1 (centres unmarked) [Example 89, 3-oxo-3-(1-phenyl-3,4-dihydropyrrolo[1,2-a]pyrazin-2(1H)-yl)-N-(3-(trifluoromethyl)benzyl)propanamide]  5.34
5. O=C(CN1CCn2cccc2C1c1ccc2c(c1)OCCO2)NCc1cccc(C(F)(F)F)c1 (centres unmarked) [Example 8, 2-[1-(2,3-dihydro-benzo[1,4]dioxin-6-yl)-3,4-dihydro-1H-pyrrolo[1,2-a]pyrazin-2-yl]-N-(3-trifluoromethyl-benzyl)-acetamide]  5.53
6. CC(NC(=O)CCC(=O)N1CCn2cccc2C1c1ccccc1)c1cccc(C(F)(F)F)c1 (centres unmarked) [Example 81, 4-oxo-4-(1-phenyl-3,4-dihydropyrrolo[1,2-a]pyrazin-2(1H)-yl)-N-(1-(3-(trifluoromethyl)phenyl)ethyl)butanamide]  5.53

Same assay, conditions: agonistic activity at 10 μM, CHO-K1 cells expressing KCNQ2/3; read-out: BMG AG %@10 μm

In order of rising activation at 10 µM:
1. O=C(CC(=O)N1CCn2cccc2C1c1ccccc1)Nc1cccc(C(F)(F)F)c1 (centres unmarked) [Example 90]  -20%
2. CC1c2cccn2CCN1C(=O)CCC(=O)NCc1ccc(F)cc1 (centres unmarked) [Example 85, N-(4-fluorobenzyl)-4-(1-methyl-3,4-dihydropyrrolo[1,2-a]pyrazin-2(1H)-yl)-4-oxobutanamide]  0%
3. O=C(CCc1cccc(C(F)(F)F)c1)NCC(=O)N1CCn2cccc2C1c1ccccc1 (centres unmarked) [Example 87]  3%
4. O=C(CCCc1ccccc1)NCC(=O)N1CCn2cccc2C1c1ccccc1 (centres unmarked) [Example 88, N-(2-oxo-2-(1-phenyl-3,4-dihydropyrrolo[1,2-a]pyrazin-2(1H)-yl)ethyl)-4-phenylbutanamide]  5%
5. O=C(/C=C/c1ccccc1F)NCC(=O)N1CCn2cccc2C1c1ccccc1 (centres unmarked) [Example 92, (E)-3-(2-fluorophenyl)-N-(2-oxo-2-(1-phenyl-3,4-dihydropyrrolo[1,2-a]pyrazin-2(1H)-yl)ethyl)acrylamide]  7%
6. O=C(CN1CCn2cccc2C1c1ccccc1)NCc1cccc(C(F)(F)F)c1 (centres unmarked) [Example 91, 2-(1-phenyl-3,4-dihydropyrrolo[1,2-a]pyrazin-2(1H)-yl)-N-(3-(trifluoromethyl)benzyl)acetamide]  9%
7. CC(NC(=O)CCC(=O)N1CCn2cccc2C1Cc1ccccc1)c1cccc(C(F)(F)F)c1 (centres unmarked) [Example 80, 4-(1-benzyl-3,4-dihydropyrrolo[1,2-a]pyrazin-2(1H)-yl)-4-oxo-N-(1-(3-(trifluoromethyl)phenyl)ethyl)butanamide]  10%
8. COc1cccc(C2c3cccn3CCN2CC(=O)NCc2cccc(C(F)(F)F)c2)c1 (centres unmarked) [Example 20, 2-(1-(3-methoxyphenyl)-3,4-dihydropyrrolo[1,2-a]pyrazin-2(1H)-yl)-N-(3-(trifluoromethyl)benzyl)acetamide]  21%
9. Cc1ccc(C2c3cccn3CCN2CC(=O)NCc2cccc(C(F)(F)F)c2)cc1 (centres unmarked) [Example 37, 2-(1-p-tolyl-3,4-dihydro-1H-pyrrolo[1,2-a]pyrazin-2-yl)-N-(3-trifluoromethyl-benzyl)-acetamide]  24%
10. Cc1cccc(C2c3cccn3CCN2C(=O)CCC(=O)NCc2cccc(C(F)(F)F)c2)c1 (centres unmarked) [Example 5, 4-oxo-4-(1-m-tolyl-3,4-dihydro-1H-pyrrolo[1,2-a]pyrazin-2-yl)-N-(3-trifluoromethyl-benzyl)-butyramide]  28%
11. O=C(CCC(=O)N1CCn2cccc2C1c1ccc(Cl)cc1)NCc1cccc(C(F)(F)F)c1 (centres unmarked) [Example 1, 4-[1-(4-chloro-phenyl)-3,4-dihydro-1H-pyrrolo[1,2-a]pyrazin-2-yl]-4-oxo-N-(3-trifluoromethyl-benzyl)-butyramide]  69%

These molecules were tested against T1, hKCNQ2/3 (assay: Voltage clamp (patch-clamp) measurements on stably transfected hKCNQ2/3 CHO-K1 cell line). Conditions: potential −40 mV, relative to retigabine (RG = 1).
Format: cell-based
Procedure: Voltage Clamp Measurements
In order to confirm a KCNQ2/3-agonistic action of the substances electrophysiologically, patch-clamp measurements (Hamill et al., 1981) were carried out in voltage clamp mode on a stably transfected hKCNQ2/3 CHO-K1 cell line. After formation of the gigaseal, the cells were first clamped at a holding potential of −60 mV. Thereafter, depolarizing voltage jumps were applied up to a potential of +20 mV (increment: 20 mV, duration: 1 second) in order to confirm the functional expression of KCNQ2/3-typical currents. The testing of the substances was carried out at a potential of −40 mV. The increase in current induced by retigabine (10 at −40 mV was first recorded as a positive control on each cell. After complete washing out of the retigabine effect (duration: 80 s), the test substance was applied. • See: Hamill O P, Marty A, Neher E, Sakmann B, Sigworth F J.: Improved patch-clamp techniques for high-resolution current recording from cells and cell-free membrane patches. Pflugers Arch. 1981 August; 391(2):85-100.

In order of falling “MAN rel eff @ 10 μM [RG = 1]” value:
1. CC(NC(=O)CCC(=O)N1CCn2cccc2C1c1ccccc1)c1cccc(C(F)(F)F)c1 (centres unmarked) [Example 81, 4-oxo-4-(1-phenyl-3,4-dihydropyrrolo[1,2-a]pyrazin-2(1H)-yl)-N-(1-(3-(trifluoromethyl)phenyl)ethyl)butanamide]  0.25
2. CC(NC(=O)CCC(=O)N1CCn2cccc2C1c1cccs1)c1cccc(C(F)(F)F)c1 (centres unmarked) [Example 82, 4-oxo-4-(1-(thiophen-2-yl)-3,4-dihydropyrrolo[1,2-a]pyrazin-2(1H)-yl)-N-(1-(3-(trifluoromethyl)phenyl)ethyl)butanamide]  0.11
3. O=C(CC(=O)N1CCn2cccc2C1c1ccccc1)Nc1cccc(C(F)(F)F)c1 (centres unmarked) [Example 90]  −0.46
